Measured values reported in patent USRE42461E1, “Hydroxy-substituted azetidinone compounds useful as hypocholesterolemic agents” (Schering Corporation, priority 1994, dated 2011).
Read-outs that look alike come from different tables or passages of the source.

Test system: Hyperlipidemic Hamster
Assay: In Vivo Assay of Hypolipidemic Agents Using the Hyperlipidemic Hamster
Conditions: 0.5% cholesterol diet 7 days, oral gavage once daily in corn oil, percent change versus control, negative = lowering; for change in vivo at 50 mg/kg / change in vivo at 10 mg/kg / change in vivo at 5 mg/kg / change in vivo at 8 mg/kg / change in vivo at 7 mg/kg / change in vivo at 3 mg/kg / change in vivo at 1 mg/kg: Mesocricetus auratus, 168 h
Protocol: The in vivo activity of the compounds of formula I can be determined by the following procedure: […]
In Vivo Assay of Hypoligidemic Hypolipidemic Agents Using the Hyperlipidemic Hamster
Hamsters are separated into groups of six and given a controlled cholesterol diet (Purina Chow #5001 containing 0.5% cholesterol) for seven days. Diet consumption is monitored to determine dietary cholesterol exposure in the face of test compounds. The animals are dosed with the test compound once daily beginning with the initiation of diet. Dosing is by oral gavage of 0.2 mL of corn oil alone (control group) or solution (or suspension) of test compound in corn oil. All animals moribund or in poor physical condition are euthanized. After seven days, the animals are anesthetized by intramuscular (IM) injection of ketamine and sacrificed by decapitation. Blood is collected into vacutainer tubes containing EDTA for plasma lipid analysis and the liver excised for tissue lipid analysis. Lipid analysis is conducted as per published procedures (Schnitzer-Polokoff, R., et al. Comp. Biochem. Physiol., 99A, 4 (1991), p. 665-670) and data is reported as percent reduction of lipid versus control.
Using the test procedures described above, the following in vivo data were obtained for the exemplified compounds. Data is reported as percent change (i.e., percent reduction in cholesterol esters) versus control, therefore, negative numbers indicate a positive lipid-lowering effect.

[1] = liver cholesterol esters, read-out: % Reduction Cholest. Esters
[2] = po, read-out: % Reduction Serum Cholest.
[3] = liver cholesterol esters, dose 10 mg/kg, read-out: % Reduction Cholest. Esters
[4] = po, dose 10 mg/kg, read-out: % Reduction Serum Cholest.
[5] = liver cholesterol esters, dose 10 mg/kg
[6] = liver cholesterol esters, dose 1 mg/kg
[7] = liver cholesterol esters, dose 1 mg/kg, read-out: % Reduction Cholest. Esters
[8] = po, dose 1 mg/kg, read-out: % Reduction Serum Cholest.

COc1ccc([C@H]2C(C[C@@H](O)c3ccccc3)C(=O)N2c2ccccc2)cc1 (stereo partly shown) [Example 1A]
change in vivo at 50 mg/kg [1]: 0% | change in vivo at 50 mg/kg [2]: -2.3%

COc1ccc([C@@H]2C(C[C@@H](O)c3ccccc3)C(=O)N2c2ccccc2)cc1 (stereo partly shown) [Example 1B]
change in vivo at 50 mg/kg [1]: -39% | change in vivo at 50 mg/kg [2]: -15%

COc1ccc([C@H]2C(C[C@@H](OC(C)=O)c3ccccc3)C(=O)N2c2ccccc2)cc1 (stereo partly shown) [Example 2]
change in vivo at 50 mg/kg [1]: 0% | change in vivo at 50 mg/kg [2]: 0%

COc1ccc([C@@H]2C([C@@H](O)CCc3ccccc3)C(=O)N2c2ccccc2)cc1 (stereo partly shown) [Example 3A]
change in vivo at 50 mg/kg [1]: -69% | change in vivo at 50 mg/kg [2]: -31%

COc1ccc([C@@H]2[C@H](C(O)CCc3ccccc3)C(=O)N2c2ccccc2)cc1 (stereo partly shown) [Example 3C]
change in vivo at 50 mg/kg [1]: -92% | change in vivo at 50 mg/kg [2]: -60%

COc1ccc([C@@H]2[C@H]([C@H](O)CCc3ccccc3)C(=O)N2c2ccccc2)cc1 [Example 3H]
change in vivo at 10 mg/kg [3]: -86% | change in vivo at 10 mg/kg [4]: -41%

COc1ccc([C@@H]2C([C@@H](O)c3cccc4ccccc34)C(=O)N2c2ccccc2)cc1 (stereo partly shown) [Example 3L]
% Reduction Serum Cholest. (dose 10 mg/kg): −15% | % Reduction Cholest. Esters [5]: −21%

COc1ccc([C@@H]2C([C@@H](O)c3cccc4ccccc34)C(=O)N2c2ccccc2)cc1 (stereo partly shown) [Example 3M]
% Reduction Serum Cholest. (dose 10 mg/kg): 0% | % Reduction Cholest. Esters [5]: −22%

COc1ccc([C@@H]2C(CC[C@@H](O)c3ccccc3)C(=O)N2c2ccc(OC)cc2)cc1 (stereo partly shown) [Example 4A]
change in vivo at 5 mg/kg [1]: -54% | change in vivo at 5 mg/kg [2]: 0%

COc1ccc([C@@H]2C(CC[C@H](O)c3ccccc3)C(=O)N2c2ccc(OC)cc2)cc1 (stereo partly shown) [Example 4B]
change in vivo at 8 mg/kg [1]: -89% | change in vivo at 8 mg/kg [2]: -37%

COc1ccc([C@H]2[C@H](CC[C@H](O)c3ccccc3)C(=O)N2c2ccc(OC)cc2)cc1 [Example 4D]
change in vivo at 7 mg/kg [1]: 0% | change in vivo at 7 mg/kg [2]: 9%

COc1ccc(N2C(=O)C(CC[C@@H](O)c3ccccc3)[C@H]2c2ccc(O)cc2)cc1 (stereo partly shown) [Example 4E]
change in vivo at 3 mg/kg [1]: -46% | change in vivo at 3 mg/kg [2]: 0%

COc1ccc(N2C(=O)C(CC[C@H](O)c3ccccc3)[C@H]2c2ccc(O)cc2)cc1 (stereo partly shown) [Example 4F]
change in vivo at 3 mg/kg [1]: -95% | change in vivo at 3 mg/kg [2]: -29%

COCOc1ccc(C(O)CCC2C(=O)N(c3ccc(OC)cc3)[C@@H]2c2ccc(OC)cc2)cc1 (stereo partly shown) [Example 5]
change in vivo at 10 mg/kg [3]: -64% | change in vivo at 10 mg/kg [4]: 0%

O=C1[C@H](CC[C@H](O)c2ccc(F)cc2)[C@@H](c2ccc(OCc3ccccc3)cc2)N1c1ccc(F)cc1 [Example 6A-1]
% Reduction Serum Cholest. (dose 1 mg/kg): −43% | % Reduction Cholest. Esters [6]: −93%

O=C1C(CC[C@H](O)c2ccc(F)cc2)[C@@H](c2ccc(O)cc2)N1c1ccc(F)cc1 (stereo partly shown) [Example 6A]
change in vivo at 1 mg/kg [7]: -95% | change in vivo at 1 mg/kg [8]: -59%

O=C1C(CC[C@@H](O)c2ccc(F)cc2)[C@@H](c2ccc(O)cc2)N1c1ccc(F)cc1 (stereo partly shown) [Example 6B]
change in vivo at 3 mg/kg [1]: -92% | change in vivo at 3 mg/kg [2]: -40%

COc1ccc(N2C(=O)C(CC[C@@H](O)c3ccccc3)[C@H]2c2ccc(OC(C)=O)cc2)cc1 (stereo partly shown) [Example 6C]
change in vivo at 3 mg/kg [1]: -48% | change in vivo at 3 mg/kg [2]: 0%

COc1ccc(N2C(=O)C(CC[C@H](O)c3ccccc3)[C@H]2c2ccc(OC(C)=O)cc2)cc1 (stereo partly shown) [Example 6D]
change in vivo at 10 mg/kg [3]: -95% | change in vivo at 10 mg/kg [4]: -46%

COc1ccc([C@@H]2[C@@H](CC[C@@H](OC(C)=O)c3ccccc3)C(=O)N2c2ccc(OC)cc2)cc1 [Example 8A, 1,4(S)-bis(4-methoxyphenyl)-3(R)-(3(R)-acetoxy-3-phenylpropyl)-2-azetidinone]
change in vivo at 3 mg/kg [1]: -44% | change in vivo at 3 mg/kg [2]: 0%

COc1ccc([C@@H]2[C@@H](CC[C@H](OC(C)=O)c3ccccc3)C(=O)N2c2ccc(OC)cc2)cc1 [Example 8B, 1,4(S)-bis(4-methoxyphenyl)-3(R)-(3(S)-acetoxy-3-phenylpropyl)-2-azetidinone]
change in vivo at 3 mg/kg [1]: -95% | change in vivo at 3 mg/kg [2]: -50%

CC(=O)Oc1ccc([C@@H]2[C@@H](CC[C@@H](OC(C)=O)c3ccc(F)cc3)C(=O)N2c2ccc(F)cc2)cc1 [Example 8C, 4(S)-(4-acetyloxyphenyl)-3(R)-(3(R)-acetyloxiy-3-(4-fluorophenyl)propyl)-1-(4-fluorophenyl)-2-azetidinone]
% Reduction Serum Cholest. (dose 1 mg/kg): −14% | % Reduction Cholest. Esters [6]: −37%

CC(=O)Oc1ccc([C@@H]2[C@@H](CC[C@H](OC(C)=O)c3ccc(F)cc3)C(=O)N2c2ccc(F)cc2)cc1 [Example 8D, 4(S)-(4-acetyloxyphenyl)-3(R)-(3(S)-acetyloxy-3-(4-fluorophenyl)propyl)-1-(4-fluorophenyl)-2-azetidinone]
change in vivo at 1 mg/kg [7]: -98% | change in vivo at 1 mg/kg [8]: -49%

CC(=O)Oc1ccc([C@@H]2C(CC[C@H](OC(C)=O)c3ccc(Cl)cc3)C(=O)N2c2ccc(Cl)cc2)cc1 (stereo partly shown) [Example 8E]
change in vivo at 3 mg/kg [1]: -66% | change in vivo at 3 mg/kg [2]: -22%

CC(=O)Oc1ccc([C@@H]2C(CC[C@@H](OC(C)=O)c3ccc(Cl)cc3)C(=O)N2c2ccc(Cl)cc2)cc1 (stereo partly shown) [Example 8F]
change in vivo at 1 mg/kg [7]: -94% | change in vivo at 1 mg/kg [8]: -43%

O=C1[C@@H]([C@H](O)CCc2ccccc2)[C@@H](c2ccc(O)cc2)N1c1ccc(F)cc1 [Example 10]
change in vivo at 3 mg/kg [1]: -77% | change in vivo at 3 mg/kg [2]: -26%
